# Assay results from publication PMC10150926, “PHT427 as an effective New Delhi metallo-β-lactamase-1 (NDM-1) inhibitor restored the susceptibility of meropenem against Enterobacteriaceae producing NDM-1” (Frontiers in Microbiology, 2023).
# Columns and labels:
# Type in all cases: binding
# [1] = target: T1, New Delhi metallo-β-lactamase-1 (NDM-1) (Klebsiella pneumoniae, UniProt C7C422, Q123A); assay: SPR
# T1 construct: gene blaNDM-1
# [2] = target: T2, New Delhi metallo-β-lactamase-1 (NDM-1) (Klebsiella pneumoniae, UniProt C7C422, N220A); assay: SPR
# T2 construct: gene blaNDM-1
# [3] = target: T3, New Delhi metallo-β-lactamase-1 (NDM-1) (Klebsiella pneumoniae, UniProt C7C422); assay: SPR (also fluorescence quenching; purified enzyme inhibition with meropenem, IC50 […])
# T3 construct: gene blaNDM-1
structure (smiles),measurement,setting,value
"CCCCCCCCCCCCc1ccc(S(=O)(=O)Nc2nncs2)cc1 [PHT427, 4-dodecyl-N-1,3,4-thiadiazol-2-yl-benzenesulfonamide]",Kd,[1],124 µM
same,Kd,[2],896 µM
same,Kd,[3],62.8 µM
